Experimental data as given in patent publication US20250099490A1, “25-HYDROXYVITAMIN D AS A FEED ADDITIVE FOR AQUATIC ANIMALS” (DSM IP Assets B.V., priority 2022, published 2025).
Entries after “also recorded” stand apart in the source; their conditions may differ.

How the values were obtained:
Type in all cases: in vivo
[1] = Study 1: rainbow trout 91-day feeding trial, growth performance (SGR) and feed conversion (FCR); conditions: rainbow trout, 80, 800 or 8000 μg/kg 25-OH-D3 in feed, 91 days
Description: (§1) The first study evaluated dietary 25-hydroxyvitamin D3 (25-OH D3) compared to control basal diet fed fish. Fish with a mean starting weight of 58 g were fed diets based on the same standard composition representative of typical commercial salmonid feeds.
(§2) Test diets contained no supplemented 25-OH-D3 or either 80, 800 or 8000 μg/kg supplemented 25-OH-D3 (as fed basis). Hy·D (25-OH-D3) was supplemented on top of diets already containing cholecalciferol (D3) from both endogenous and supplemented sources. The measured levels of D3 in all experimental diets were in excess of established minimum dietary requirements for D3, (National Research Council (NRC), Nutrient Requirements of Fish and Shrimp. 2011, Washington, DC: The National Academies Press. 392.). In addition, the dietary level of D3 in all experimental diets met recommendations for optimal vitamin D3 in salmonid diets (Fish Nutrition. Fourth Edition 2021. Edited by Ronald W. Hardy and Sadasivam J. Kaushik. Academic Press, UK. 905 pp.), which stipulates a vitamin D3 supplementation of 2500-3500 international units (IU)/62.5-87.5 μg/kg). Diets were fed for 91 days following which, test fish reached a mean final weight of 332 g. Forty fish were housed in each tank and each treatment consisted of four replicate tanks.

[2] = Study 1: rainbow trout 91-day feeding trial, vitamin D3 metabolites in plasma and muscle
Description: as §1, §2

[3] = Study 2: Atlantic salmon 90-day feeding trial, viscerosomatic index, carcass yield and visceral fat; conditions: Atlantic salmon, 100, 200 or 400 μg/kg 25-OH-D3 in feed, 90 days, relative to control
Description: (§3) The second study evaluated dietary 25-hydroxyvitamin D3 (25-OH D3) compared to control basal diet fed fish.
(§4) Fish with a mean starting weight of 23.4 g were fed diets based on the same standard composition representative of typical commercial salmonid feeds. Test diets contained no supplemented 25-OH-D3 or either 100, 200 or 400 μg/kg supplemented 25-OH-D3 (as fed basis). Hy·D (25-OH-D3) was supplemented on top of diets already containing cholecalciferol (D3) from both endogenous and supplemented sources. The measured levels of D3 in all experimental diets were in excess of established minimum dietary requirements for D3, (National Research Council (NRC), Nutrient Requirements of Fish and Shrimp. 2011, Washington, DC: The National Academies Press. 392.). In addition, the dietary level of D3 in all experimental diets met recommendations for optimal vitamin D3 in salmonid diets (Fish Nutrition. Fourth Edition 2021. Edited by Ronald W. Hardy and Sadasivam J. Kaushik. Academic Press, UK. 905 pp.), which stipulates a vitamin D3 supplementation of 2500-3500 international units (IU)/62.5-87.5 μg/kg). Diets were fed for 90 days with test fish reaching a mean final weight of 73.0 g. Twenty fish were housed in each tank and each treatment consisted of five replicate tanks.

[4] = Rainbow trout 20-week feeding from first-feeding, feed efficiency and whole body composition; conditions: 80 μg/Kg 25-OH-D3 plus D3, 20 weeks
Description: The first study evaluated standard dietary levels of supplemented vitamin D3 alone or in combination with 80 μg/Kg 25-hydroxy vitamin D3dietary 25-hydroxyvitamin D3 (25-OH D3) in rainbow trout fed for 20 weeks from first-feeding.
Two commercial-like experimental diets were formulated by DSM Nutritional Products France and produced by SPAROS (Portugal). The basal diet was supplemented with either vitamin D3 only (VitD3 diet) or D3 in combination with 80 μg/Kg 25-hydroxy vitamin D3 (25-OH-D3 diet) (Table 1).
The parameters for growth performance, including feed efficiency (FE), were measured every 3 weeks and calculated as follow: Feed efficiency (FE)=(the mass for dead fish+final wet body mass-initial wet body mass)/dry feed intake. […].
Data are presented as means±standard deviation (SD). For growth parameters, the plasma and the qPCR results, data were analyzed by t-Student comparison of two means. Normality was assessed using the Shaprio-Wilk test, while homoscedasticity was determined using Levene's test. Data was analysed using the statistical R software/R Commander package. For all statistical analyses, the level of significance was set at P<0.05. […] Differentially expressed genes (DEG) are determined and hierarchical clustering is illustrated by a heatmap. […]

[5] = Study 2: Atlantic salmon 90-day feeding trial, final body weight, FCR and PER; conditions: Atlantic salmon, 100, 200 or 400 μg/kg 25-OH-D3 in feed, 90 days, relative to control
Description: as §3, §4

[6] = rainbow trout, 80, 800 or 8000 μg/kg in standard trout feed

C=C1CC[C@H](O)C/C1=C/C=C1\CCC[C@]2(C)[C@@H]([C@H](C)CCCC(C)(C)O)CC[C@@H]12 [25-OH-D3, 25-hydroxyvitamin D3]
specific growth rate (SGR) relative to the control ([1]; apparent from 31 days onwards): rapidly improved; also recorded: increased growth rate relative to the control | feed conversion ratio (FCR) relative to the control ([1]; from 15 days onwards): rapidly improved | plasma levels of 1,25-OH-D3 (active D3 metabolite) ([2]; rainbow trout, 80, 800 or 8000 μg/kg dietary 25-OH-D3 from Hy·D, D3-replete diets): increased plasma levels | blood plasma 25-OH-D3 in response to increasing dietary 25-OH-D3 [2, 6]: increase in a linear relationship | muscle 25-OH-D3 in response to increasing dietary 25-OH-D3 [2, 6]: increase in a linear relationship | bioavailability to fish ([2]; rainbow trout, from changes in plasma and muscle vitamin D3 metabolites): highly bioavailable | carcass yield (percentage carcass) [3]: improved carcass yields; also recorded: increased | percentage fat in the viscera [3]: reduced percentage fat being deposited in the viscera | viscerosomatic index (VSI) [3]: reduced VSI; also recorded: decreased VSI | feed efficiency (FE) ([4]; rainbow trout fry, vs 1.19 for comparison diet, p=0.0002): 1.29 | whole body protein ([4]; rainbow trout, 47.38 vs. 51.15, p=0.006): 51.15 | feed conversion (FCR) [5]: improved | final body weight [5]: improved; also recorded: increased growth | protein efficiency ratio (PER) [5]: improved
